In ChEMBL document CHEMBL2169777, “Chemical modulators working at pharmacological interface of target proteins” (Bioorg Med Chem, 2012):

What was measured:
[1] = Inhibition of IL2 receptor binding to IL2 alpha receptor by scintillation proximity assay
Beta-nerve growth factor = Beta-nerve growth factor (Homo sapiens, UniProt P01138); assay: Inhibition of NGF binding to p75NTR
Sequence of Beta-nerve growth factor (P01138 122-241 limits assumed): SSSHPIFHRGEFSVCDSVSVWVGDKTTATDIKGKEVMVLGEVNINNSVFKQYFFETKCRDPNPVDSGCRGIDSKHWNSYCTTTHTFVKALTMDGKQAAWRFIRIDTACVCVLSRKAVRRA

Work on `CC(C)C[C@@H](NC(=N)N)C(=O)NCC(=O)N1CCC(c2cc(-c3ccc(OCc4ccc(C(=O)O)o4)c(Cl)c3Cl)nn2C)CC1` yielded a Ki [1] of 60 nM.
Work on `COC(=O)[C@H](Cc1ccc(C#Cc2ccccc2)cc1)NC(=O)C[C@H]1CCCN(C(=N)N)C1` yielded an IC50 [1] of 3000 nM.
`Cc1cc2nc3c(=O)[nH]c(=O)nc-3n(C)c2cc1C=O` gave an IC50 (Beta-nerve growth factor) of 1000 nM.
